These results are taken from US10653658B2, “Biofilm inhibiting compositions enhancing weight gain in livestock” (Akeso Biomedical, Inc., priority 2015, dated 2020).

A short description of data set [1]: Zootechnical efficacy of ferric citrate in milk replacer for rearing calves: body weight, feed intake, gain, FCR (Example 11). The following applies: milk replacer: T1 Fe(II) sulfate 85 g Fe/tonne, T2 plus ferric citrate 500 g/tonne feed. The format is in vivo, rearing calves (German Holstein). The method, then:
The composition of the basal calf milk replacer is shown in Table 36, and the feeding schedule in Table 37.
The milk replacer was dissolved in warm water at around 50° C. The concentration was 125 grams per liter. The drinking temperature was kept at 38 to 40° C.
Additionally, a commercial calf starter feed (mash) without phytogenics, probiotics, organic acids or enzymes was provided. Straw was also provided in pre-weighed amounts throughout the 56 day feeding period.

Data set [2] can be described thus: Calf health scoring: body temperature, faeces quality, coughing, nasal discharge, antibiotic treatments (Example 11). The method, then:
A study was performed to evaluate the potential of ferric citrate (CI-PLEX™ CHELATE) to improve calf health, welfare, and performance. A total of 80 rearing calves (German Holstein) were used from d 12 to d 68 of age. 40 calves were fed a basal milk replacer (T1 Control). For comparison, 40 calves were fed the basal milk replacer with addition of ferric (III) citrate (T2 CI-PLEX™ CHELATE, 500 g/tonne feed) with a microtracer present at a rate of 10%, equivalent to 50 g/tonne for product identification purposes only. The basal milk replacer was supplemented with ferrous (II) sulfate at normal commercial rates (supplying 85 g Fe/tonne feed). T2 was also supplemented with normal commercial practice of Fe (ferrous (II) sulfate at 85 g Fe/tonne feed) with Fe at 85 g/tonne feed from the ferric (III) citrate (CI-PLEX™ CHELATE). […] The basal milk replacer batch was produced, and then split into 2 aliquots prior to adding the different inorganic or organic Fe sources to T1, and T2 diets. Calves were housed in rearing units, each unit with pens on either side of a central aisle.
The following parameters were measured: mean pen body weight (BW), feed intake (FI), body weight gain (BWG), feed conversion ratio (FCR, feed:gain) at study start and on days 7, 14, 21, 28, 35, 42, 49 and 56 days on trial. In addition, the following were also recorded: body temperature, faeces quality, coughing score, and nasal discharge.
The scoring of faecal consistency and of rectal temperature, coughing, nasal discharge as well as eye and ear scores were ranked daily.

Data set [3] has as its system Pseudomonas aeruginosa PAO-1 strain.
Method: Pseudomonas aeruginosa PAO-1 strain was routinely grown on either LB (Luria-Bertani, Oxoid, UK) agar plates at 37° C. or in broth at 37° C. with 200 rpm shaking. UV-sterilized glass slides were incubated in either 15 mL RPMI-1640 defined medium (Sigma, UK) or 15 mL RPMI-1640 with Fe-Lac inoculated with diluted (OD600=0.01) bacteria from overnight cultures at 37° C. with 60 rpm shaking for 72 hours. The slides were removed from bacterial culture and washed with 15 mL phosphate buffered saline at room temperature for 5 minutes three times and then rinsed with distilled H2O. After washing, the slides were stained with 20 μM SYTO17 dye (Invitrogen, UK) at room temperature for 30 minutes. After removing excess staining dye and air-drying, the samples were examined using a Carl Zeiss LSM 700 Laser Scanning Microscope with ZEN 2009 imaging software (Carl Zeiss, Germany). The coverage rate of bacteria on the surface was analysed using open source Image J 1.44 software (National Institute of Health, US).
Pseudomonas aeruginosa PAO-1 strain was routinely grown on either LB (Luria-Bertani, Oxoid, UK) agar plates at 37° C. or in broth at 37° C. with 200 rpm shaking. UV-sterilized glass slides were incubated in either 15 mL RPMI-1640 defined medium (Sigma, UK) or 15 mL RPMI-1640 with Fe-Cit inoculated with diluted (OD600=0.01) bacteria from overnight cultures at 37° C. with 60 rpm shaking for 72 hours. The slides were removed from bacterial culture and washed with 15 mL phosphate buffered saline at room temperature for 5 minutes three times and then rinsed with distilled H2O. After washing, the slides were stained with 20 μM SYTO17 dye (Invitrogen, UK) at room temperature for 30 minutes. After removing excess staining dye and air-drying, the samples were examined using a Carl Zeiss LSM 700 Laser Scanning Microscope with ZEN 2009 imaging software (Carl Zeiss, Germany). The coverage rate of bacteria on the surface was analysed using open source Image J 1.44 software (National Institute of Health, US).
Pseudomonas aeruginosa PAO-1 strain was routinely grown on either LB (Luria-Bertani, Oxoid, UK) agar plates at 37° C. or in broth at 37° C. with 200 rpm shaking. […] The slides were removed from bacterial culture and washed with 15 mL phosphate buffered saline at room temperature for 5 minutes three times and then rinsed with distilled H2O. After washing, the slides were stained with 20 μM SYTO17 dye (Invitrogen, UK) at room temperature for 30 minutes. After removing excess staining dye and air-drying, the samples were examined using a Carl Zeiss LSM 700 Laser Scanning Microscope with ZEN 2009 imaging software (Carl Zeiss, Germany). The coverage rate of bacteria on the surface was analysed using open source Image J 1.44 software (National Institute of Health, US).
Pseudomonas aeruginosa PAO-1 strain was routinely grown on either LB (Luria-Bertani, Oxoid, UK) agar plates at 37° C. or in broth at 37° C. with 200 rpm shaking. UV-sterilized glass slides were incubated in either 15 mL RPMI-1640 defined medium (Sigma, UK) or 15 mL RPMI-1640 with Fe-Gly inoculated with diluted (OD600=0.01) bacteria from overnight cultures at 37° C. with 60 rpm shaking for 72 hours. The slides were removed from bacterial culture and washed with 15 mL phosphate buffered saline at room temperature for 5 minutes three times and then rinsed with distilled H2O. […] The coverage rate of bacteria on the surface was analysed using open source Image J 1.44 software (National Institute of Health, US).
Another data set concerns E. coli. Briefly: Faecal E. coli counts in weaner pigs (Example 7). The class given is in vivo. To be noted: 0.2 g/L in drinking water; one male pig per pen. The source says: (§1) Faeces, cleanliness and health scores was taken daily (Appendix). Faecal scores especially are indicative of diarrhea incidence, and are used in the industry as a general easy to observe gut health indicator. […] Faecal samples were stored under conditions allowing submission to SAC Veterinary Services for quantification of lactobacilli and coliforms, and their ratio (L:C ratio). These are used as key indicators for gut health, with a greater L:C ratio being indicative to better gut health.

The conditions of data set [4]: 0.2 g/L in drinking water; weaner pigs.
From the text: Animal Details • Number of treatments: 4 treatments • Number of replicates: 4 pens • Number of animals per pen: 4 pigs (balanced for sex as much as possible) • Number of pens in study: 16 pens • Animal species and breed: newly weaned pigs (Large White×Landrace) • Total number of animals: 64
There were four (4) treatments, each having 4 replicate pens with 4 pigs per replicate pen, i.e. 16 pigs per treatment or 64 pigs in total.
The feeds used were standard commercial, non-medicated feeds, tailored for weaner pigs. The feeds were offered as a 3 mm pellet and ad libitum. Water will also be available ad libitum.
The Ethology 3 building of SRUC's Easter Howgate Pig Unit were used in this study. This house consists of 6 rooms, each with 4 pens, so holds up to 24 pens of 4 m^2 each; for this study, 4 rooms were used. The animal house, which is an environmentally controlled building, were sanitized prior to use and between rounds. Pigs were placed at weaning on a thick layer of fresh white wood shavings or straw in pens. Pens were balanced as much as possible for litter origin and sex (2 intact males and 2 females). Pens were bedded with additional sawdust or straw as required, and were equipped with a single feeder and nipple drinker. Foods were available ad libitum throughout. Water were supplied via measured bottles per pen, and also available. Environmental temperature were maintained at 26° C. for the first 4 days after weaning and then decreased by 2° C. for the remainder of the experiment. Lights were on from 08:00 am till 18:00 μm and night-lights maintained between 18:00 μm and 08:00 am.
Pigs were individually weighed at day 0, 6 and 13. Pigs removed or found dead weighed, and date noted.
The volume of feed offered per pen was recorded daily from day 0 until day 12, inclusive. Feed refusals were recorded daily from day 1 until day 13, inclusive.
Pig weights, feed offered and feed refusals were used to determine averaged daily weight gain, daily feed intake and feed conversion ratio, over day 0 to 6, 6 to 13, as well as 0 to 13.
From day 0 until day 13, the volume of water offered per pen was recorded daily and water levels were recorded from the water bottles prior to morning feeding before tupping up.
Data gathered were analyzed using analysis of variance (ANOVA), to test for the effect of Fe-complex provision per se and Fe-complex type. Treatments were allocated in blocks within Ethology 3, as each of the four proposed treatments were in each of the four rooms used. As such, rooms were used as block in the model. Effects were considered significant at P<0.05.
For the next data set, the system named is Campylobacter jejuni. Briefly: Campylobacter carriage in chickens after oral challenge, caecal contents at day 35 (Example 9). The class given is in vivo. The following applies: 340 μM in the drinking water. Here is the method:
A study was performed to evaluate reduction of Campylobacter carriage in chickens using ferric lactate in one treatment group, and FeQ (Q-PLEX) in a second treatment group. A third treatment group served as a positive control. The ferric lactate and FeQ were administered to the treatment groups at a concentration of 340 μM in the drinking water. Each treatment group comprised 12 birds per pen. All three treatment groups were orally challenged with 10^5 cfu of Campylobacter jejuni at day 14 of the trial. At day 35 all birds were euthanized, and quantitative bacteriology performed on caecal contents.

A further data set has as its system lactobacilli. Briefly: Faecal lactobacilli counts and L:C ratio in weaner pigs (Example 7). The format is in vivo. To be noted: 0.2 g/L in drinking water; one male pig per pen.
From the text: as §1

Data set [5] concerns Campylobacter jejuni NCTC 11168. Briefly: Biofilm formation on plastic coated UV beads (Example 6). To be noted: Fe-Tart and Fe-Cit at 50, 100, and 300 μM; FeQ (QPLEX) at 300.
Where [6] appears, read: Score 0: normal, 1: slightly disorder, 2: middle disorder, 3: severe disorder.

Like-named read-outs stand apart in the source and are kept apart here. Marks after values point to notes of the source that are not given here.

Turning to `O=S(=O)([O-])[O-].[Fe+2]` [Fe (II)sulfate], in data set [1], the “ADFI 1-21 d of rearing” value is 804 ± 38 g, the “ADFI 1-56 d of rearing” value stood at 1.49 ± 0.02 kg, the “ADFI 22-56 d of rearing” value worked out at 1.90 ± 0.02 kg and the “ADG 1-21 d of rearing” value was 268 ± 30^a g. Moreover, in data set [1], the “ADG 1-56 d of rearing” value is given as 723 ± 36^a g, the “ADG 22-56 d of rearing” value was 792 ± 48^a g, the “FCR 1-21 d of rearing” value was 1.339 ± 0.142^a feed:gain and the “FCR 1-56 d of rearing” value is recorded as 2.065 ± 0.100^a feed:gain. For the same compound, in data set [1], the “FCR 22-56 d of rearing” value is 2.408 ± 0.148^a feed:gain and the “Mean BW at d 56 of rearing” value is recorded as 91.9 ± 2.0^a kg. Also, in data set [2] (setting [6]), the “Mean daily body temperature score 1-56 d of rearing” value was 0.09 ± 0.11^a, the “Mean daily coughing score 1-56 d of rearing” value was found to be 0.51 ± 0.13, the “Mean daily ear score 1-56 d of rearing” value was 0.04 ± 0.07 and the “Mean daily eye score 1-56 d of rearing” value stood at 0.04 ± 0.07. In addition, in data set [2] (setting [6]), the “Mean daily faecal score 1-56 d of rearing” value is given as 0.68 ± 0.14 and the “Mean daily nasal discharge score 1-56 d of rearing” value was 0.44 ± 0.12. In data set [2] (bovine, in vivo), the “% excluded, 1-56 d of rearing” value worked out at 0% and the “No calves excluded, 1-56 d of rearing” value was 1. In addition, the “No calves treated with antibiotics, 1-56 d of rearing” value in data set [2] (of 40 calves per treatment) stood at 3.
Regarding `NCC(=O)[O-].NCC(=O)[O-].NCC(=O)[O-].[Fe+3]` [Fe-Gly, Ferric glycinate], the “biofilm formation (coverage rate on glass slide)” value in data set [3] (300 μM, 72 hours) was “able to inhibit biofilm formation”; in data set [3] (100 and 300 μM, 72 hours) it was “inhibits the formation of biofilm”.
`CC(O)C(=O)O.CC(O)C(=O)O.CC(O)C(=O)O.[Fe]` (centres unmarked) [Fe-Lac, ferric lactate]: in the data set on E. coli, the “Faecal E. coli counts, day 0 post weaning” value is given as 8.40 10log cfu/g; the “Faecal E. coli counts, day 4 post weaning” value was 7.80 10log cfu/g; the “Faecal E. coli counts, day 7 post weaning” value is given as 6.37 10log cfu/g; the “Faecal E. coli counts, day 14 post weaning” value is given as 5.98 10log cfu/g. Further, the “biofilm formation (coverage rate on glass slide), dispersion effect (FIG. 5B)” value in data set [3] (10, 50, and 100 μM) is “inhibits the formation of biofilm”. In data set [3] (50, 100, and 300 μM, 72 hours), the “biofilm formation (coverage rate on glass slide), titration effect (FIG. 5A)” value was “inhibits the formation of biofilm”. Besides, in data set [4], the “Averaged body weight gain, days 0 to 4 post weaning” value came out at 153 g/day/pig; the “Averaged body weight gain, days 0 to 7 post weaning” value turned out to be 172 g/day/pig; the “Averaged body weight gain, days 0 to 14 post weaning” value is 380 g/day/pig; the “Averaged body weight gain, days 4 to 7 post weaning” value is reported as 197 g/day/pig. For the same compound, in data set [4], the “Averaged body weight gain, days 7 to 14 post weaning” value is 587 g/day/pig; the “Averaged daily feed intake, days 0 to 4 post weaning” value is given as 154 g/day/pig; the “Averaged daily feed intake, days 0 to 7 post weaning” value came to 223 g/day/pig; the “Averaged daily feed intake, days 0 to 14 post weaning” value was determined as 378 g/day/pig. In addition, in data set [4], the “Averaged daily feed intake, days 4 to 7 post weaning” value amounted to 315 g/day/pig; the “Averaged daily feed intake, days 7 to 14 post weaning” value is on record as 532 g/day/pig; the “Body weights, day 0 post weaning” value is on record as 9.74 kg/pig; the “Body weights, day 4 post weaning” value came to 10.35 kg/pig. Also, in data set [4], the “Body weights, day 7 post weaning” value is reported as 10.94 kg/pig; the “Body weights, day 14 post weaning” value came out at 15.05 kg/pig; the “Feed conversion ratio, days 0 to 4 post weaning” value is recorded as 0.54 g/g; the “Feed conversion ratio, days 0 to 7 post weaning” value amounted to 2.67 g/g. In data set [4], the “Feed conversion ratio, days 0 to 14 post weaning” value stood at 1.00 g/g and the “Feed conversion ratio, days 7 to 14 post weaning” value was found to be 0.91 g/g. The “levels of Campylobacter in caeca at day 35, comparison between treatments (FIG. 11)” value in the data set with Campylobacter jejuni is “lowest levels”. The “levels of Campylobacter in caeca at day 35 compared with positive control (FIG. 11)” value with Campylobacter jejuni (oral challenge at day 14) is listed as “lower levels of Campylobacter in their caeca”. Besides, in the data set with lactobacilli, the “Faecal lactobacilli counts, day 0 post weaning” value is reported as 8.68 10log cfu/g; the “Faecal lactobacilli counts, day 4 post weaning” value is reported as 8.76 10log cfu/g; the “Faecal lactobacilli counts, day 7 post weaning” value is on record as 8.97 10log cfu/g; the “Faecal lactobacilli counts, day 14 post weaning” value was 8.77 10log cfu/g. In addition, in the data set with lactobacilli, the “Lactobacilli to E. coli ratio (L:C), day 0 post weaning” value came to 1.03; the “Lactobacilli to E. coli ratio (L:C), day 4 post weaning” value is given as 1.08; the “Lactobacilli to E. coli ratio (L:C), day 7 post weaning” value turned out to be 1.33; the “Lactobacilli to E. coli ratio (L:C), day 14 post weaning” value turned out to be 1.45.
Turning to `O=C([O-])C(O)C(O)C(=O)[O-].O=C([O-])C(O)C(O)C(=O)[O-].O=C([O-])C(O)C(O)C(=O)[O-].[Fe+3].[Fe+3]` (centres unmarked) [Fe-Tart, ferric tartrate], in the data set on E. coli, the “Faecal E. coli counts, day 0 post weaning” value is 8.67 10log cfu/g; the “Faecal E. coli counts, day 4 post weaning” value is listed as 6.42 10log cfu/g; the “Faecal E. coli counts, day 7 post weaning” value was 6.51 10log cfu/g; the “Faecal E. coli counts, day 14 post weaning” value was 6.43 10log cfu/g. Besides, the “biofilm formation (coverage rate on glass slide)” value in data set [3] (100 and 300 μM, 72 hours) was “inhibits the formation of biofilm”. For the same compound, in the data set with lactobacilli, the “Faecal lactobacilli counts, day 0 post weaning” value was 8.84 10log cfu/g; the “Faecal lactobacilli counts, day 4 post weaning” value is 8.94 10log cfu/g; the “Faecal lactobacilli counts, day 7 post weaning” value is on record as 9.48 10log cfu/g; the “Faecal lactobacilli counts, day 14 post weaning” value is 8.79 10log cfu/g. Further, in data set [5], the “C. jejuni biofilm formation on plastic coated UV beads (FIG. 9)” value is “inhibited C. jejuni biofilm formation”.
